Consider 13 compounds from ChEMBL document CHEMBL1201862, “PubChem BioAssay data set” (2004).

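Where inhibition never reached the appropriate level, the endpoint shown equals the highest concentration tested. Otherwise, values were interpolated linearly from a five-concentration, 48-hour dose response in 96-well plates. Abbreviation: GI50, concentration required for 50% inhibition of growth.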 The source made the active and inactive calls. No stated cut-off is given here; in the data, active = GI50 up to about 1.1 µM and inactive = higher.

Assay in all cases: NCI tumour cell line growth inhibition, 48 h
Test [1] has as its system ACHN.
Test [2] concerns DLD-1.
Test [3] has as its system HCC 2998.
In test [4] the test system is SNB-19.
For test [5], the system named is OVCAR-8.
The test system of test [6] is SNB-75.
In test [7] the test system is SF-295.
Test [8] concerns HCT-15.
The subject of test [9] is UACC-62.
The test system of test [10] is K562.
Test [11] has as its system M14.
The test system of test [12] is SW-620.
Test [13] has as its system NCI-H522.
In test [14] the test system is CAKI-1.
Test [15] has as its system A498.
Test [16] deals with SR.
In test [17] the test system is Hs-578T.
Test [18] concerns PC-3.
The test system of test [19] is BT-549.
Test [20] relates to MDA-MB-231.

`COC1OC(COCc2ccc(Cl)cc2)C(OCc2ccc(Cl)cc2)C1O` (configuration not stated): the GI50 in [1] was 18.6 µM (inactive); in test [2], 16.2 µM (inactive); in test [3] it was 17.7 µM (inactive); in test [4], 18 µM (inactive); in test [5], 26.2 µM (inactive); in test [6], 17.5 µM (inactive). Moreover, the GI50 was 18 µM (inactive) in [7]; 16 µM in [8]; 16.2 µM (inactive) in test [9]; 16.2 µM (inactive) in test [10]; 16.1 µM (inactive) in test [11]; 15.4 µM (inactive) in [12]. The GI50 in test [13] is 12.8 µM (inactive); in [14] it was 18 µM (inactive).

As for `CC(C)=CC(=O)C1c2cccc(O)c2C(=O)c2c(O)cc(C)cc21` (configuration not stated), the GI50 is 2.12 µM (inactive) in test [1]; 2.87 µM (inactive) in [2]; 1.2 µM (inactive) in test [3]; 2.12 µM (inactive) in test [4]; 2.81 µM (inactive) in test [5]; 2.12 µM (inactive) in test [6]. For the same compound, the GI50 is 1.84 µM (inactive) in test [7]; 10.7 µM (inactive) in test [15]; 3.24 µM in test [8]; 2.65 µM (inactive) in test [10]; 3.25 µM (inactive) in [11]; 3.33 µM (inactive) in test [12]. Besides, the results for the GI50 in test [13] and in test [14] were 2 µM (inactive) and 5.25 µM (inactive), respectively.

As for `N#CC(C(=O)/C(=N/N)C(C#N)c1ccc(Cl)cc1)c1ccc(Cl)cc1` (configuration not stated), the GI50 in test [1], in [2], in [3], in test [4], in [5] and in test [6] was > 100 µM (inactive) throughout. Moreover, the GI50 in [7] is > 100 µM (inactive); in [15], > 100 µM (inactive); in [8] it was more than 100 µM; in test [9] it was > 100 µM (inactive); in test [10] it was > 100 µM (inactive); in [11], > 100 µM (inactive). Also, the GI50 in [12] and in [13] was > 100 µM (inactive) each time.

Take `C=C(COC(C)=O)CC(/C=C(\C)CCC=C(C)C)OC(C)=O` (configuration not stated): the GI50 in test [1] is > 100 µM (inactive); in test [2], > 100 µM (inactive); in [3], > 100 µM (inactive); in test [4] it was > 100 µM (inactive); in test [5] it was > 100 µM (inactive); in test [6], 50.6 µM (inactive). Moreover, the GI50 is > 100 µM (inactive) in test [7]; > 100 µM (inactive) in [15]; more than 100 µM in test [8]; > 100 µM (inactive) in test [9]; > 100 µM (inactive) in test [10]; > 100 µM (inactive) in [11]. For the same compound, the GI50 in [12] and in [13] was > 100 µM (inactive) throughout.

On to `CCCCCCC(C)OC(=O)/C=C(\CC(=O)OC(C)CCCCCC)C(=O)OC(C)CCCCCC` (configuration not stated), for which the GI50 in test [1], in test [2], in test [3], in [5], in test [6] and in [7] was > 100 µM (inactive) throughout. Further, the GI50 in test [15] was > 100 µM (inactive); in test [8] it was more than 100 µM; in test [9], > 100 µM (inactive); in [11], > 100 µM (inactive); in test [12], > 100 µM (inactive); in test [13] it was > 100 µM (inactive). For the same compound, the GI50 in [14] was > 100 µM (inactive).

In the case of `OC/C=C(\I)CCCOCOCc1ccccc1`, the GI50 in [1] was 32.3 µM (inactive); in test [2], > 100 µM (inactive); in [3], 34 µM (inactive); in test [4], 52.8 µM (inactive); in [5], 41.4 µM (inactive); in test [6], 53.1 µM (inactive). The GI50 was 36.1 µM (inactive) in test [7]; 60.8 µM (inactive) in [15]; 38.5 µM in [8]; 34.6 µM (inactive) in [9]; 40 µM (inactive) in test [10]; 31.1 µM (inactive) in test [11]. Besides, the GI50 in test [12] was 44 µM (inactive); in test [13] it was 23.3 µM (inactive).

Turning to `C=C(CS(=O)(=O)c1ccccc1)[P+](c1ccccc1)(c1ccccc1)c1ccccc1`, the GI50 was 21.7 µM (inactive) in test [1]; 21.4 µM (inactive) in [2]; 20.8 µM (inactive) in test [3]; 28.4 µM (inactive) in test [4]; 14.8 µM (inactive) in [5]; 12.6 µM (inactive) in test [6]. For the same compound, the GI50 in test [7] is 20.2 µM (inactive); in test [15], 35.7 µM (inactive); in test [8], 23.6 µM; in [9] it was 22.9 µM (inactive); in test [10], 4.65 µM (inactive); in test [11], 17.4 µM (inactive). The GI50 in test [12] was 18.2 µM (inactive); in [13] it was 18.6 µM (inactive); in [14], 23.4 µM (inactive).

For the compound `O=C1Nc2nc3ccccc3n2N=C2CCCC12` (configuration not stated), the GI50 in test [1], in test [2], in test [3], in test [4], in [5] and in test [6] was > 100 µM (inactive) in each case. Also, the GI50 is > 100 µM (inactive) in test [7]; > 100 µM (inactive) in test [15]; more than 100 µM in test [8]; > 100 µM (inactive) in [9]; > 100 µM (inactive) in test [10]; > 100 µM (inactive) in test [11]. Also, the GI50 in test [12] and in test [14] was > 100 µM (inactive) throughout.

For the compound `COC12OCCN(CCO)C1=CC(=O)C1(C)N=NC(C)C12` (configuration not stated), the GI50 in test [1], in test [2], in test [3], in test [5], in test [6] and in [7] was > 100 µM (inactive) throughout. Also, the GI50 in [15] was > 100 µM (inactive); in test [8] it was more than 100 µM; in test [9] it was > 100 µM (inactive); in [10], > 100 µM (inactive); in [11] it was > 100 µM (inactive); in test [12], > 100 µM (inactive). Besides, the GI50 in [13] and in [14] was > 100 µM (inactive) each time.

For the compound `Clc1ccccc1C1SCc2nc3ccccc3n21` (configuration not stated), the GI50 in test [1] was 22.1 µM (inactive); in [2], 33.2 µM (inactive); in test [4] it was 12.4 µM (inactive); in test [5], 24.2 µM (inactive); in test [6], 3.97 µM (inactive); in test [7], 28.8 µM (inactive). Moreover, the GI50 in test [8] was 22.6 µM; in test [9], > 10 µM (inactive); in test [10], 21.6 µM (inactive); in test [11] it was 19.1 µM (inactive); in test [12], 43.5 µM (inactive); in [16], 19.4 µM (inactive). Moreover, the GI50 in test [13] was 9.55 µM (inactive); in test [14] it was 25.4 µM (inactive).

Take `CC(NNC(=O)c1ccncc1)c1ccc(Cl)cc1Cl` (configuration not stated): the GI50 is > 100 µM (inactive) in test [1]; > 100 µM (inactive) in test [17]; 59.8 µM (inactive) in test [18]; > 100 µM (inactive) in test [3]; > 100 µM (inactive) in [4]; > 100 µM (inactive) in test [19]. Further, the GI50 is > 100 µM (inactive) in test [5]; > 100 µM (inactive) in test [6]; 72.9 µM (inactive) in test [7]; > 100 µM (inactive) in test [15]; 65.6 µM in test [8]; > 100 µM (inactive) in [9]. In addition, the GI50 in test [10] was > 100 µM (inactive); in test [20], > 100 µM (inactive); in [11] it was > 100 µM (inactive); in test [12], > 100 µM (inactive); in test [16] it was 55.3 µM (inactive); in test [13], > 100 µM (inactive). In addition, in test [14], the GI50 is > 100 µM (inactive).

Regarding `FC(F)(F)C1(C(F)(F)F)O[Si]2(OC(C(F)(F)F)(C(F)(F)F)c3ccccc32)c2ccccc21`, the GI50 was 12 µM (inactive) in test [1]; 11.9 µM (inactive) in test [17]; 6.27 µM (inactive) in test [18]; 13.7 µM (inactive) in test [3]; 9.57 µM (inactive) in test [4]; 14.5 µM (inactive) in test [19]. The GI50 in [5] was 8.75 µM (inactive); in test [6], 14.6 µM (inactive); in test [7] it was 5.2 µM (inactive); in test [15], 13.7 µM (inactive); in [8] it was 17 µM; in test [9], 5.55 µM (inactive). For the same compound, the GI50 in [10] is 10.3 µM (inactive); in [20], 8.24 µM (inactive); in [11], 13.2 µM (inactive); in test [12], 17.1 µM (inactive); in [16], 9.95 µM (inactive); in test [13], 7.53 µM (inactive). Further, the GI50 in test [14] is 19.1 µM (inactive).

Regarding `CN(C)c1nc2n(CCO)c(-c3ccccc3)c(-c3ccccc3)nc-2c(=O)n1`, the GI50 in test [1], in test [17], in test [18], in [3], in test [4] and in test [19] was > 100 µM (inactive) throughout. In addition, the GI50 was > 100 µM (inactive) in test [5]; 21.7 µM (inactive) in test [6]; > 100 µM (inactive) in [7]; > 100 µM (inactive) in test [15]; more than 100 µM in [8]; > 100 µM (inactive) in [9]. In addition, the GI50 in test [10], in [20], in [11], in test [12], in test [16] and in test [13] was > 100 µM (inactive) in each case. Besides, the GI50 in test [14] is > 100 µM (inactive).
